The target of this experiment is T1, recombinant T. circumcincta DPY-31 (Tc rDPY-31) (Teladorsagia circumcincta, UniProt A0A0C5PRQ1).
T1 construct: catalytic astacin domain only (684 bp codon-optimised synthetic gene), His-tagged, pET-28a(+) NdeI/XhoI, E. coli BL21 (DE3), Ni-NTA, 23 kDa; full-length precursor 614 residues
T1 sequence (A0A0C5PRQ1 151-378 limits assumed): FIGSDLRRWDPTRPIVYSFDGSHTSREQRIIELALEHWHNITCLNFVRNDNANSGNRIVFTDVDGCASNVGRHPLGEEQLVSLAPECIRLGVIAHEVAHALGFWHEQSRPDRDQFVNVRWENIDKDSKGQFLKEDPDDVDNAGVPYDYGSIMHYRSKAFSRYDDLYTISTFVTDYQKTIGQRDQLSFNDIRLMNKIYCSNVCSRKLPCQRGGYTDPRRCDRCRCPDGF
The experiment is described as follows: chromogenic protease assay, Suc-Ala-Ala-Ala-pNA, […] nm. It is filed as biochemical. Particulars: read-out: Effective concentration against T. circumcincta rDPY-31 ^d.

Each structure is given as a SMILES string.

Take `CCCCC[C@H](CC(=O)NO)C(=O)N[C@H](C(=O)N1CCC[C@H]1CO)C(C)C` [Actinonin]: the IC50 is 50 µM.

Values taken from article PMC4406453, “A highly conserved, inhibitable astacin metalloprotease from Teladorsagia circumcincta is required for cuticle formation and nematode development^” (International Journal for Parasitology, 2015).
